Experimental data taken from US9758484B2 (Asieris Pharmaceutical Technologies Co., Ltd., priority 2013, dated 2017).
Where “and” joins values, the source holds several entries; their conditions need not be identical. Identical values can stand only once.

Columns and labels:
[1] = Solubility tests of nitroxoline and nitroxoline salts in aqueous buffers and water; type: physicochemical; conditions: aqueous buffers pH 1.2 to 8, 25 °C, pH 1.2, aqueous buffer, thermodynamic from solid, all pHs tested, from pH 1.2 to 8; read-out: solubility at all pHs tested
Procedure: 1) Aqueous buffer solutions with varying pH were prepared as follows: • i. Water: distilled water; • ii. pH=1.2 buffer: 7.65 mL 36.5% HCl solution was diluted to 1000 mL with water; • iii. pH=4.5 buffer: 18 g sodium acetate and 9.8 mL acetic acid were diluted to 1000 mL with water; • iv. pH=5.0 buffer: sodium hydroxide was added to 0.2 mol/L monosodium phosphate (NaH2PO4) solution until the pH was adjusted to 5.0; • v. pH=6.0 buffer: 18 g sodium acetate were added into 20 mL acetic acid solution (1 M), and the mixture was diluted to 500 mL with water; • vi. pH=6.8 buffer: 250 mL of 0.2 M monopotassium phosphate (KH2PO4) solution were added to 118 mL of 0.2 M sodium hydroxide solution, and the mixture was diluted to 1000 mL with water; • vii. pH=7.4 buffer: 1.36 g monopotassium phosphate (KH2PO4) were added to 79 mL of 0.1 M sodium hydroxide solution, and the mixture was diluted to 200 mL with water; and • viii pH=8.0 buffer: 5.59 g potassium biphosphate (K2HPO4) and 0.41 g monopotassium. phosphate (KH2PO4) were added to 1000 mL water and mixed.
2) Solubility tests were performed generally as follows:
Under a temperature of 25±2° C., 10 mg of each salt sample was weighed and added to a 100 mL volumetric bottle. 0.25 mL buffer was added to the bottle, which was shaken vigorously for 30 seconds every 5 min.
If the sample was not completely dissolved, 0.7 mL of the same buffer was added, and dissolution was observed by the same shaking procedure.
If the sample was not completely dissolved, 8.5 mL of the same buffer was added, and dissolution was observed by the same shaking procedure.
If the sample was not completely dissolved, 85 mL of the same buffer was added, and dissolution was observed by the same shaking procedure.

[2] = In vivo urinary excretion of nitroxoline and nitroxoline salts in beagle dogs
Procedure: Urine samples were collected in the following periods of time: 0-2, 2-4, 4-6, 6-8, 8-24 h. Urine samples were analyzed by LC/MS/MS method utilizing an Agilent 1100 HPLC system with a CTC auto-sampler, an AB API4000 mass spectrometer, and a column of ACQUITY UPLC BEH C18 (2.1*50 mm) Dexamethasone was used as an internal standard. […] The range of linearity was determined to be 25˜5000 ng/mL.
(§1) The same study was repeated with APL-1092, nitroxoline lysine salt.

[3] = In vivo urinary excretion of nitroxoline and nitroxoline salts in mice; design: species or system CD-1 ICR mice; conditions: 41.8 mg/kg
Procedure: Urine samples were collected in the following periods of time: 0-2, 2-6, 6-24 h. Due to the small volume of the urine from mice, the collecting system in the cage was washed with water at each collecting time. Urine samples and their wash samples were analyzed according to the same methods used in the beagle dog study (Example 24).
as §1

[4] = humans, orally administered; cited from earlier work

- solubility at 30 min [1]: < 100 µg/mL
- 24-Hr Accumulated drug in the urine ([2]; In Dogs, 75 mg APL-1202 or equivalent amount): 97 µg
- f (%): percentage of total mass of excreted drug versus the dose amount ([2]; individual dogs, oral tablet, 75 mg nitroxoline equivalent): 0.074% and 0.11% and 0.205%
- Total mass of nitroxoline in urine ([2]; individual dogs, oral tablet, 75 mg nitroxoline equivalent, 0-24 hr): 55350 ng and 82489 ng and 153888 ng
- Mass of nitroxoline in urine, 0-2 hr ([2]; individual dogs, oral tablet, 75 mg nitroxoline equivalent, collection 0-2 hr): 5670 ng and 60420 ng and 105600 ng
- Mass of nitroxoline in urine, 2-4 hr ([2]; individual dogs, oral tablet, 75 mg nitroxoline equivalent, collection 2-4 hr): 0 ng and 13005 ng and 5502 ng
- Mass of nitroxoline in urine, 4-6 hr ([2]; individual dogs, oral tablet, 75 mg nitroxoline equivalent, collection 4-6 hr): 0 ng and 817 ng and 28696 ng
- Mass of nitroxoline in urine, 6-8 hr ([2]; individual dogs, oral tablet, 75 mg nitroxoline equivalent, collection 6-8 hr): 0 ng and 2582 ng and 5808 ng
- Mass of nitroxoline in urine, 8-24 hr ([2]; individual dogs, oral tablet, 75 mg nitroxoline equivalent, collection 8-24 hr): 49680 ng and 5664 ng and 8282 ng
- f (%): percentage of total mass of excreted drug versus the dose amount, Mean ([2]; mean of dogs, oral tablet, 75 mg nitroxoline equivalent): 0.13%
- Total mass of nitroxoline in urine, Mean ([2]; mean of dogs, oral tablet, 75 mg nitroxoline equivalent, 0-24 hr): 97242 ng
- Mass of nitroxoline in urine, 0-2 hr, Mean ([2]; mean of dogs, oral tablet, 75 mg nitroxoline equivalent, collection 0-2 hr): 57230 ng
- Mass of nitroxoline in urine, 2-4 hr, Mean ([2]; mean of dogs, oral tablet, 75 mg nitroxoline equivalent, collection 2-4 hr): 9254 ng
- Mass of nitroxoline in urine, 4-6 hr, Mean ([2]; mean of dogs, oral tablet, 75 mg nitroxoline equivalent, collection 4-6 hr): 14757 ng
- Mass of nitroxoline in urine, 6-8 hr, Mean ([2]; mean of dogs, oral tablet, 75 mg nitroxoline equivalent, collection 6-8 hr): 4195 ng
- Mass of nitroxoline in urine, 8-24 hr, Mean ([2]; mean of dogs, oral tablet, 75 mg nitroxoline equivalent, collection 8-24 hr): 21209 ng
- 24-Hr Accumulated drug in the urine ([3]; In Mice, 41.8 mg/Kg APL-1202 or equivalent dose): 79.8 µg
- Total mass of nitroxoline in urine and wash, Mean ([3]; mean of mice, oral, equivalent of 41.8 mg/Kg nitroxoline, 0-24 hr): 79827 ng
- f (%): percentage of total mass of excreted drug versus the dose amount, Mean ([3]; mean of mice, oral, equivalent of 41.8 mg/Kg nitroxoline): 10%
- Mass of nitroxoline, 0~2 wash, Mean ([3]; mean of mice, oral, equivalent of 41.8 mg/Kg nitroxoline, cage wash 0~2 hr): 4184 ng
- Mass of nitroxoline, 2~6 wash, Mean ([3]; mean of mice, oral, equivalent of 41.8 mg/Kg nitroxoline, cage wash 2~6 hr): 2057 ng
- Mass of nitroxoline, 6~24 wash, Mean ([3]; mean of mice, oral, equivalent of 41.8 mg/Kg nitroxoline, cage wash 6~24 hr): 1138 ng
- Mass of nitroxoline in urine, 0-2 hr, Mean ([3]; mean of mice, oral, equivalent of 41.8 mg/Kg nitroxoline, urine 0-2 hr): 56879 ng
- Mass of nitroxoline in urine, 2-6 hr, Mean ([3]; mean of mice, oral, equivalent of 41.8 mg/Kg nitroxoline, urine 2-6 hr): 15258 ng
- Mass of nitroxoline in urine, 6-24 hr, Mean ([3]; mean of mice, oral, equivalent of 41.8 mg/Kg nitroxoline, urine 6-24 hr): 310 ng
Structure (SMILES): O=[N+]([O-])c1ccc(O)c2ncccc12 [APL-1202, nitroxoline, reference compound]
- Total mass of nitroxoline in urine and wash ([3]; individual mice, oral, equivalent of 41.8 mg/Kg nitroxoline, 0-24 hr): 124391 ng and 50517 ng and 23093 ng and 41201 ng and 88137 ng and 151622 ng
- f (%): percentage of total mass of excreted drug versus the dose amount ([3]; individual mice, oral, equivalent of 41.8 mg/Kg nitroxoline): 15.2% and 6.17% and 2.94% and 5.24% and 10.9% and 19.5%
- Mass of nitroxoline, 0~2 wash ([3]; individual mice, oral, equivalent of 41.8 mg/Kg nitroxoline, cage wash 0~2 hr): 2856 ng and 6652.8 ng and 784 ng and 4212 ng and 8250 ng and 2352 ng
- Mass of nitroxoline, 2~6 wash ([3]; individual mice, oral, equivalent of 41.8 mg/Kg nitroxoline, cage wash 2~6 hr): 1283 ng and 5325 ng and 957 ng and 2904 ng and 1530 ng and 346 ng
- Mass of nitroxoline, 6~24 wash ([3]; individual mice, oral, equivalent of 41.8 mg/Kg nitroxoline, cage wash 6~24 hr): 249 ng and 1428 ng and 2341 ng and 1558 ng and 1102 ng and 152 ng
- Mass of nitroxoline in urine, 0-2 hr ([3]; individual mice, oral, equivalent of 41.8 mg/Kg nitroxoline, urine 0-2 hr): 109552 ng and 10584 ng and 1360 ng and 21035 ng and 61040 ng and 137700 ng
- Mass of nitroxoline in urine, 2-6 hr ([3]; individual mice, oral, equivalent of 41.8 mg/Kg nitroxoline, urine 2-6 hr): 10404 ng and 26418 ng and 17600 ng and 11412 ng and 14715 ng and 11000 ng
- Mass of nitroxoline in urine, 6-24 hr ([3]; individual mice, oral, equivalent of 41.8 mg/Kg nitroxoline, urine 6-24 hr): 47.8 ng and 109 ng and 50.9 ng and 81 ng and 1500 ng and 71.5 ng
- half-life (t1/2) [4]: 2.63 h
